Data published in patent publication US10294202B2, “Pyrrolidinones as herbicides” (FMC Corporation, priority 2013, dated 2019).

Assays:
Test in all cases: Test E preemergence herbicide test
Set-up in all cases: key: 0 = no effect, 100 = complete control
[1] = system: beggarticks; assay type: in vivo, Bidens pilosa
From the text: (§1) Seeds of plant species selected from corn (Zea mays), soybean (Glycine max), velvetleaf (Abutilon theophrasti), lambsquarters (Chenopodium album), wild poinsettia (Euphorbia heterophylla), pigweed, palmer (palmer pigweed, Amaranthus palmeri), waterhemp (common waterhemp, Amaranthus rudis), surinam grass (Brachiaria decumbens), crabgrass, large (large crabgrass, Digitaria sanguinalis), crabgrass, Brazil (Brazilian crabgrass, Digitaria horizontalis), panicum, fall (fall panicum, Panicum dichotomiflorum), foxtail, giant (giant foxtail, Setaria faberii), foxtail, green (green foxtail, Setaria viridis), goosegrass (Eleusine indica), johnsongrass (Sorghum halepense), ragweed (common ragweed, Ambrosia elatior), barnyardgrass (Echinochloa crus-galli), sandbur (southern sandbur, Cenchrus echinatus), arrowleaf […] rhombifolia), ryegrass, Italian (Italian ryegrass, Lolium multiflorum), dayflower, VA (Virginia dayflower, Commelina virginica), field bindweed (Convolvulus arvensis), morningglory (Ipomoea coccinea), nightshade (eastern black nightshade, Solanum ptycanthum), kochia (Kochia scoparia), nutsedge, yellow (yellow nutsedge, Cyperus esculentus), cocklebur (common cocklebur, Xanthium strumarium), smartweed (ladysthumb smartweed, Polygonum Persicaria) and beggarticks (hairy beggarticks, Bidens pilosa), were planted into a silt loam soil and treated preemergence with test chemicals formulated in a non-phytotoxic solvent mixture which included a surfactant. Treated plants and controls were maintained in a greenhouse for 21 days, after which time all species were compared to controls and visually evaluated. Plant response ratings, summarized in Table E, are based on a scale of 0 to 100 where 0 is no effect and 100 is complete control. A dash (-) response means no test result.

[2] = system: crabgrass, large; assay type: in vivo, Digitaria sanguinalis
Method in brief: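 Visual injury rating, 0 (no effect) to 100 (complete control), versus controls at 21 days in greenhouse. Preemergence application to seeds planted in silt loam; compound formulated in non-phytotoxic solvent mix plus surfactant.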

[3] = system: lambsquarters; assay type: in vivo, Chenopodium album
From the text: as §1

[4] = system: corn; assay type: in vivo, Zea mays
From the text: as §1

Which results are given for `O=C1NCC(c2cccc(Br)c2)C1C(=O)Nc1ccccc1F` (centres unmarked) [Compound 66]?
Plant response rating, Beggarticks ([1]; 16 g ai/ha): 0; Plant response rating, Beggarticks ([1]; 31 g ai/ha): 0; Plant response rating, Beggarticks ([1]; 62 g ai/ha): 0; Plant response rating, Beggarticks ([1]; 125 g ai/ha): 0; Plant response rating, Beggarticks ([1]; 250 g ai/ha): 0; Plant response rating, Crabgrass, Large ([2]; 16 g ai/ha): 0; Plant response rating, Crabgrass, Large ([2]; 31 g ai/ha): 10; Plant response rating, Crabgrass, Large ([2]; 62 g ai/ha): 75; Plant response rating, Crabgrass, Large ([2]; 125 g ai/ha): 90; Plant response rating, Crabgrass, Large ([2]; 250 g ai/ha): 98; Plant response rating, Lambsquarters ([3]; 16 g ai/ha): 0; Plant response rating, Lambsquarters ([3]; 31 g ai/ha): 0; Plant response rating, Lambsquarters ([3]; 62 g ai/ha): 0; Plant response rating, Lambsquarters ([3]; 125 g ai/ha): 0; Plant response rating, Lambsquarters ([3]; 250 g ai/ha): 0; Plant response rating, Corn ([4]; 16 g ai/ha): 0; Plant response rating, Corn ([4]; 31 g ai/ha): 0; Plant response rating, Corn ([4]; 62 g ai/ha): 0; Plant response rating, Corn ([4]; 125 g ai/ha): 0; Plant response rating, Corn ([4]; 250 g ai/ha): 0
